Data as given in ChEMBL document CHEMBL3507680, “University of Dundee, Gates Library screen for HepG2 cell viability”.

Assay: Human HepG2 cell viability assay in 384 well format
Format: toxicity, cell-based
Parameters: dose 125 nL, time 70.5 hour; concentration not given beside the values
Settings: HepG2 cells, read-out: Inhibition

SMILES: Cc1cc(CN2CCN3C[C@H](c4ccccc4)[C@@H](CO)[C@H]3C2)on1
- cytotoxicity at 70.5 h: -5.95%

SMILES: COCC(=O)N1CC2=CC(C)(C)COc3ccc(OC)c(c32)C1
- cytotoxicity at 70.5 h: 21.5%

SMILES: COc1ccc2c3c1CN(C(=O)N(C)C)CC3=CC(C)(C)CO2
- cytotoxicity at 70.5 h: -6.85%

SMILES: COc1ccc2c3c1CN(S(C)(=O)=O)CC3=CC(C)(C)CO2
- cytotoxicity at 70.5 h: -6.24%

SMILES: CCCS(=O)(=O)N1CC(=O)N(Cc2ccccc2OC)CC(O)C1 (centres undefined)
- cytotoxicity at 70.5 h: 18.5%

SMILES: CC(C)COC(=O)N1CC(=O)N(CCCc2ccccc2)CC(O)C1 (centres undefined)
- cytotoxicity at 70.5 h: -4.38%

SMILES: COc1cccc(OC)c1CN1CC(O)CN(S(C)(=O)=O)CC1=O (centres undefined)
- cytotoxicity at 70.5 h: 25.6%

SMILES: COC1CN(C(=O)NC2CCCC2)CCC(=O)N(C)c2ccccc21 (centres undefined)
- cytotoxicity at 70.5 h: -1.11%

SMILES: CCN1Cc2cc(F)ccc2N(C(C)=O)CCC1=O
- cytotoxicity at 70.5 h: -3.82%

SMILES: CCN1Cc2cc(F)ccc2N(C(=O)C2CCC2)CCC1=O
- cytotoxicity at 70.5 h: -9.67%

SMILES: CC(C)CCc1cc(C(=O)O)nc2[nH]c(=O)[nH]c(=O)c12
- cytotoxicity at 70.5 h: -15.5%

SMILES: NCCC(Cc1ccccc1)c1ccco1 (centres undefined)
- cytotoxicity at 70.5 h: 35%

SMILES: Cc1cnc(N2CCC3(CCC(C(=O)NC(C)C)OC3)CC2)nc1 (centres undefined)
- cytotoxicity at 70.5 h: -2.25%

SMILES: CC(=O)NCc1noc2c1CN(Cc1ccsc1)CC2
- cytotoxicity at 70.5 h: -7.56%

SMILES: Cc1ccc(CN2C[C@H]3C[C@H](C(=O)NCc4cccnc4)[C@@H](C2)O3)o1
- cytotoxicity at 70.5 h: -8.69%

SMILES: Cc1cccc(S(=O)(=O)N2C[C@H]3C[C@H](C(=O)NCC(C)C)[C@@H](C2)O3)c1
- cytotoxicity at 70.5 h: 25.7%

SMILES: CCN(CC)c1ccc2ccc(C(=O)O)cn12
- cytotoxicity at 70.5 h: -5.88%

SMILES: Cc1cc(CN2C[C@@H]3COC[C@]3(c3nnc(C)o3)C2)no1
- cytotoxicity at 70.5 h: 16.2%

SMILES: Cc1cnc(N2C[C@@H]3[C@@H](C2)OCC(=O)N3CC2CC2)nc1
- cytotoxicity at 70.5 h: 14.2%

SMILES: O=C(C1CCCO1)N1CCC2(CC1)CNCCO2 (centres undefined)
- cytotoxicity at 70.5 h: 9.56%

SMILES: CC(C)NC(=O)c1ccc2c(c1)C(c1nc[nH]n1)CN2C (centres undefined)
- cytotoxicity at 70.5 h: -8.61%

SMILES: Cc1cnc(NC2CCc3c(ccc(=O)n3C)C2)nc1 (centres undefined)
- cytotoxicity at 70.5 h: -4.77%

SMILES: COc1ccc(CN2CCO[C@H]3CN(C(=O)C4CC4)CC[C@H]3C2=O)cc1
- cytotoxicity at 70.5 h: -12%

SMILES: CC(C)N1CCN(C)CC1c1nnc2ccc(C(=O)N3CCCC3)cn12 (centres undefined)
- cytotoxicity at 70.5 h: -11.5%

SMILES: CC(=O)N1CCC2(CC1)CN(C(=O)c1cccc3[nH]ccc13)C2
- cytotoxicity at 70.5 h: -11.6%

SMILES: CC(C)NC(=O)c1ccc2c(c1)C(c1nc[nH]n1)CN2S(C)(=O)=O (centres undefined)
- cytotoxicity at 70.5 h: -14.8%

SMILES: O=C1[C@@H]2CCN(C3CCC3)C[C@@H]2OCCN1Cc1ccncc1
- cytotoxicity at 70.5 h: 20.5%

SMILES: O=C(NC1CCC1)C1CCC2(CN(C(=O)c3ccco3)C2)O1 (centres undefined)
- cytotoxicity at 70.5 h: -13.3%

SMILES: CN(C)C(=O)NCc1nnc2n1CCN(Cc1cccs1)C2
- cytotoxicity at 70.5 h: -2.91%

SMILES: CCOC1CC2(CCN(C(=O)COC)CC2)c2cc(C)ccc21 (centres undefined)
- cytotoxicity at 70.5 h: -9.53%

SMILES: N#CCC(=O)NCc1nnc2n1CCN(Cc1ccsc1)C2
- cytotoxicity at 70.5 h: 9.84%

SMILES: CC(=O)N1Cc2nccn2CC(CNC(=O)c2ccnnc2)C1 (centres undefined)
- cytotoxicity at 70.5 h: 9.01%

SMILES: CN(C)S(=O)(=O)N1C[C@H]2CCC[C@@]2(COCC2CCOCC2)C1
- cytotoxicity at 70.5 h: 9.65%

SMILES: CCN1CC2(CC1=O)CN(C(=O)c1ccoc1)CCN(C(=O)N(C)C)C2 (centres undefined)
- cytotoxicity at 70.5 h: 3.23%

SMILES: CCN1CC2(CC1=O)CN(C(=O)c1ccsc1)CCN(C(=O)N(C)C)C2 (centres undefined)
- cytotoxicity at 70.5 h: 3.77%

SMILES: CC(=O)N1CCC2(CC1)CN(C)C(=O)C[C@H]2C(F)(F)F
- cytotoxicity at 70.5 h: -7.04%

SMILES: O=C(N[C@@H]1CN[C@H]2CCCO[C@H]21)c1cnccn1
- cytotoxicity at 70.5 h: -0.404%

SMILES: c1csc(N2[C@H](Cn3cncn3)C[C@@H]3CNCC[C@@H]32)n1
- cytotoxicity at 70.5 h: 10.2%

SMILES: c1c(CN2CCCCC2)nc2n1CCNC2
- cytotoxicity at 70.5 h: 8.55%

SMILES: Cc1cnc(N2CCC3(CCC(C(=O)NC(C)C)C3)CC2)nc1 (centres undefined)
- cytotoxicity at 70.5 h: -7.58%

SMILES: COCCN1CCO[C@H]2CCN(C(=O)c3ccnnc3)CC[C@@H]21
- cytotoxicity at 70.5 h: -8.98%

SMILES: O=S(=O)(c1ccc(F)cc1)N1CC[C@H]2[C@H]1CCN2c1ncccn1
- cytotoxicity at 70.5 h: -2.97%

SMILES: O=S(=O)(c1cccc(F)c1)N1CC[C@H]2[C@H]1CCN2c1ncccn1
- cytotoxicity at 70.5 h: 1.7%

SMILES: CN(C)c1cc(NCc2cnc3n2CCN(CC2CC2)CC3)ncn1
- cytotoxicity at 70.5 h: 2.24%

SMILES: Cn1ccc(CN2CCC3(CC2)CC(Nc2ccccn2)CO3)n1 (centres undefined)
- cytotoxicity at 70.5 h: -2.31%

SMILES: COCCN1CCO[C@H]2CN(C(=O)c3cccs3)C[C@H]21
- cytotoxicity at 70.5 h: -7.52%

SMILES: O=C(CC1CC1)NC[C@]12COC[C@H]1CN(c1ncc(F)cn1)C2
- cytotoxicity at 70.5 h: -2.2%

SMILES: COc1ccc(CN2CCO[C@H]3CN(C4CCCC4)CC[C@H]3C2=O)cc1
- cytotoxicity at 70.5 h: -1.08%

SMILES: COc1ccc(CN2CCO[C@H]3CN(C4CCC4)CC[C@H]3C2=O)cc1
- cytotoxicity at 70.5 h: -0.486%

SMILES: CC(C)CN1CC[C@@H]2[C@H](CC1)N(C(=O)c1ccccc1)CCS2(=O)=O
- cytotoxicity at 70.5 h: -1.5%

SMILES: COCC(=O)NC[C@]12COC[C@H]1CN(c1ncc(F)cn1)C2
- cytotoxicity at 70.5 h: -7.55%

SMILES: O=C(CC1CC1)NC[C@]12COC[C@H]1CN(c1ncccn1)C2
- cytotoxicity at 70.5 h: -8%

SMILES: Fc1cnc(N2CCn3c(CN4CCCC4)nnc3C2)nc1
- cytotoxicity at 70.5 h: -9.62%

SMILES: CC(=O)N1CCC2(CC1)CC(N1CCOCC1)c1ccc(C)cc12 (centres undefined)
- cytotoxicity at 70.5 h: -8.04%

SMILES: Cc1cnc(N2CCn3c(CN4CCOCC4)nnc3C2)nc1
- cytotoxicity at 70.5 h: 21.1%

SMILES: Cn1cnc(S(=O)(=O)N2C[C@H](OCC3CC3)[C@H]3OCCC[C@H]32)c1
- cytotoxicity at 70.5 h: 16.2%

SMILES: Cc1ccc2c(c1)C1(CCN(C(=O)C3CC3)CC1)CC2N1CCOCC1 (centres undefined)
- cytotoxicity at 70.5 h: -3.95%

SMILES: CO[C@@H]1CN(S(=O)(=O)c2cn(C)cn2)[C@@H]2CCCO[C@@H]21
- cytotoxicity at 70.5 h: -4.74%

SMILES: Cn1c2c(ccc1=O)CC(Nc1ncc(F)cn1)CC2 (centres undefined)
- cytotoxicity at 70.5 h: -11.5%

SMILES: CN(C)[C@@H]1CN(C(=O)c2ccc(C#N)cc2)[C@@H]2CCCO[C@H]12
- cytotoxicity at 70.5 h: 3.23%

SMILES: CS(=O)(=O)N1Cc2nccn2CC(CNC(=O)c2cccnc2)C1 (centres undefined)
- cytotoxicity at 70.5 h: -5.69%

SMILES: CCN1CCC12CCN(C(=O)c1ccsc1)C2 (centres undefined)
- cytotoxicity at 70.5 h: -12.4%

SMILES: Cc1cccc(CN2CC3C[C@]3(NC(=O)c3cccc(F)c3)C2)n1 (some centres undefined)
- cytotoxicity at 70.5 h: -12.2%

SMILES: O=C(c1ccncc1F)N1C[C@@H]2OCCN(CC3CC3)[C@@H]2C1
- cytotoxicity at 70.5 h: -12.9%

SMILES: Cc1cc(C(=O)N2C[C@@H]3COC[C@]3(CN(C)C)C2)sc1C
- cytotoxicity at 70.5 h: -11.8%

SMILES: O=C(c1nc2c(o1)CN(CC1CCC1)C2)N1CCCC1
- cytotoxicity at 70.5 h: 10.5%

SMILES: Cc1nc(CN2C(=O)C[C@@H]3[C@@H]2CCN3CC2CCOCC2)cs1
- cytotoxicity at 70.5 h: 23.6%

SMILES: CN1Cc2c(C(=O)NC3CCCCC3)ncn2-c2ccccc2S1(=O)=O
- cytotoxicity at 70.5 h: 2.35%

SMILES: COC[C@H]1CC[C@@H]2[C@@H](CCN2Cc2ccco2)O1
- cytotoxicity at 70.5 h: 20.4%

SMILES: Fc1cccc(O[C@@H]2C[C@H]3CN(Cc4ccccn4)CCN3C2)c1
- cytotoxicity at 70.5 h: 27.5%

SMILES: COc1ncccc1C(=O)N1C[C@@H]2COC[C@]2(CN(C)C)C1
- cytotoxicity at 70.5 h: -1.76%

SMILES: Cc1cccc(CN2CC[C@H]3[C@H]2CCN3C(=O)c2cnn(C)c2)n1
- cytotoxicity at 70.5 h: 2.83%

SMILES: Cn1cc(CN2CC[C@@H]3[C@@H](CO[C@H]3CNC(=O)c3ccco3)C2)cn1
- cytotoxicity at 70.5 h: -3.28%

SMILES: CN1CCN(C(=O)[C@H]2C[C@@H]3CN(c4ncc(F)cn4)C[C@@H]3N2C)CC1
- cytotoxicity at 70.5 h: -8.27%
